Measured values reported in US12679877B2, “NPRA agonists, compositions, and uses thereof” (PharmaIn Corporation, priority 2017, dated 2026).
Non-standard residues stand in square brackets, D forms with d. No end group written: not given here. *: point of attachment. CH3(CH2)22CO = C24 acyl (CH3(CH2)22CO-), CCCCCCCCCCCCCCCCCCCCCCCC(=O)*; Docosanoyl = CCCCCCCCCCCCCCCCCCCCCC(=O)*; Stearoyl = CCCCCCCCCCCCCCCCCC(=O)*; Lauroyl = CCCCCCCCCCCC(=O)*

System: natriuretic peptide receptors (NPRA or NPRB)
Assay: 2-point blood cGMP evaluation (2 and 6 hours) after 15 mg/Kg s.c., cGMP Direct Biotrak EIA
Assay type: in vivo, CD-1 mice
Details: for In vivo blood cGMP minus baseline, 2 hour (potency) / In vivo blood cGMP minus baseline, 6 hour (receptor depletion): 15 mg/Kg s.c. in mice (n=3), minus baseline 30 pmol/ml (n=12); for In vivo blood cGMP minus baseline, 2 hour (potency): 2 hours after dosing; for In vivo blood cGMP minus baseline, 6 hour (receptor depletion): 6 hours after dosing
Method: Various derivatives of ANP were made and screened for increase in vivo potency while limiting the apparent receptor depletion effects (or perhaps can act on another cGMP enhancing receptors) by looking at the level of blood cGMP at specific time points. […] Various derivatives were made and tested in vivo to determine the level of blood cGMP at 2 hours and 6 hours after subcutaneous administration of 15 mg/Kg in mice (which was allometrically equivalent to human dose of 1.5 mg/Kg) with the goal of finding derivatives that were therapeutically useful for increasing blood cGMP.
For 2-point cGMP evaluation of various derivatives, test samples were dissolved in water (Lonza, Wakersville, MD) before being lyophilized. Prior to use, the lyophilized test sample was dissolved in saline then 15 mg/Kg was injected subcutaneously into female CD-1 mice 6-8 weeks (n=3). Blood samples were collected at 2 and 6 hours with K2EDTA blood collection tube. The collection tube was then centrifuged at 13,000 rpm for 10 minutes at 4° C. to separate plasma. The plasma was analyzed using the cGMP Direct Biotrak EIA (GE Healthcare Life Sciences, Marlborough, MA). Note that by using allometric scaling at exponent of 0.7 [dose in other species=mice dose/((mouse weight/weight of average other species)^0.7)], the 15 mg/Kg in mice is equivalent to about 7.5 mg/Kg rat dose, about 2.5 mg/Kg dog dose, and 1.5 mg/Kg human dose. For the purpose the present disclosure, the 15 mg/Kg in mice as presented in the relevant data examples, should be understood as equivalent to about 7.5 mg/Kg rat dose, which is equivalent to about 2.5 mg/Kg dog dose, which is equivalent to about 1.5 mg/Kg human dose. Because the mice cGMP response to 15 mg/Kg dose of the newly discovered derivatives (see Table 2) was quite high, it would be prudent to use daily doses that are lower than 15 mg/Kg for mice, 7.5 mg/Kg for rat, 2.5 mg/Kg for dog, and 1.5 mg/Kg for human since any higher dose may result in too much increase in cGMP that can result in too much or even dangerous drop in blood pressure unless formulated in a very slow release delivery system. In fact based on cGMP response it was more preferable to use daily doses that are lower than […], 1.5 mg/Kg for rat, 0.5 mg/Kg for dog, and 0.3 mg/Kg for human. Additionally, the level of blood cGMP is preferably between 1.5 to 3-times of the normal baseline level. The blood or plasma cGMP normal baseline level was about 20-50 pmol/ml but could vary slightly depending on the assay kit used to measure the level.

[1] = 15 mg/Kg s.c. in mice, blood cGMP

Substance | In vivo blood cGMP minus baseline, 2 hour (potency) | In vivo blood cGMP minus baseline, 6 hour (receptor depletion) | activity / potency compared to ANP, in words (2 hour data in Table 2) [1] | apparent receptor depletion/internalization, in words (6 hour data in Table 2) [1]
CH3(CH2)16CO-KKGGGSLRRSSCFGGRMDRIGAQSGLGCNSFRY (Stearoyl-KKGGGSLRRSSCFGGRMDRIGAQSGLGCNSFRY; not fully specified (bridges); printed as CH3(CH2)16CO-KKGGGSLRRSSCFGGRMDRIGAQSGLGCNSFRY; cysteine pairing not given here; listed as Homo Sapiens) [SEQ ID NO. 10] | 183.12 nM | 14.78 pmol/mL | increased potency | 
CH3(CH2)20COKKKKGGGSLRRSSCFGGRMDRIGAQSGLGCNSFRY (Docosanoyl-KKKKGGGSLRRSSCFGGRMDRIGAQSGLGCNSFRY; not fully specified (bridges); printed as CH3(CH2)20COKKKKGGGSLRRSSCFGGRMDRIGAQSGLGCNSFRY; cysteine pairing not given here; listed as Homo Sapiens) [SEQ ID NO. 94] | 263.8 nM | 255.4 pmol/mL |  | 
CH3(CH2)16CO-KKKKSLRRSSCFGGRMDRIGAQSGLGCNSFrY (Stearoyl-KKKKSLRRSSCFGGRMDRIGAQSGLGCNSF[dR]Y; not fully specified (bridges); printed as KKKKSLRRSSCFGGRMDRIGAQSGLGCNSFrY; cysteine pairing not given here; listed as Homo Sapiens) [SEQ ID NO. 36] | inactive | inactive |  | 
CH3(CH2)16COKKKKGGGGLSKGCFGLKLDRIGSMSGLGC (Stearoyl-KKKKGGGGLSKGCFGLKLDRIGSMSGLGC; not fully specified (bridges); printed as CH3(CH2)16COKKKKGGGGLSKGCFGLKLDRIGSMSG; cysteine pairing not given here; listed as Homo Sapiens) [SEQ ID NO. 72] | 544.99 nM | 368.29 pmol/mL | increased potency | 
CH3(CH2)22COKKKKGGGGLSKGCFGLKLDRIGSMSGLGC ({CH3(CH2)22CO}-KKKKGGGGLSKGCFGLKLDRIGSMSGLGC; not fully specified (bridges); printed as CH3(CH2)22COKKKKGGGGLSKGCFGLKLDRIGSMSGLGC; cysteine pairing not given here; listed as Homo Sapiens) [SEQ ID NO. 122] | 251.92 nM | 209.24 pmol/mL |  | 
GGGGLSKGCFGLKLDRIGSMSGLGC (listed as Homo Sapiens) [SEQ ID NO. 60] | 49.98 nM | 16.85 pmol/mL | no loss activity compared to ANP | 
CH3(CH2)10CO-KKGGGSLRRSSCFGGRMDRIGAQSGLGCNSFRY (Lauroyl-KKGGGSLRRSSCFGGRMDRIGAQSGLGCNSFRY; not fully specified (bridges); printed as CH3(CH2)10CO-KKGGGSLRRSSCFGGRMDRIGAQSGLGCNSFRY; cysteine pairing not given here; listed as Homo Sapiens) [SEQ ID NO. 9] | 163.62 nM | 4.78 pmol/mL | increased potency | 
GGLSKGCFGLKLDRIGSMSGLGC (listed as Homo Sapiens) [SEQ ID NO. 58] | 27.09 nM | 5.10 pmol/mL | no loss activity compared to ANP | 
CH3(CH2)16COKKGGGGLSKGCFGLKLDRIGSMSGLGC (Stearoyl-KKGGGGLSKGCFGLKLDRIGSMSGLGC; not fully specified (bridges); printed as CH3(CH2)16COKKGGGGLSKGCFGLKLDRIGSMSGLGC; cysteine pairing not given here; listed as Homo Sapiens) [SEQ ID NO. 86] | 80.2 nM | 42.37 pmol/mL |  | 
CH3(CH2)16CO-RRR-SLPRSSCFGGRMDRIGAQSGLGCNSFRY-NH2 (Stearoyl-RRRSLPRSSCFGGRMDRIGAQSGLGCNSFRY-NH2; not fully specified (bridges); printed as CH3(CH2)16CO-RRR-SLPRSSCFGGRMDRIGAQSGLG; cysteine pairing not given here; listed as Homo Sapiens) [SEQ ID NO. 39] | inactive | inactive | loss or diminished of activity | 
CH3(CH2)16CO-KKKGGGSLRRSSCFGGRMDRIGAQSGLGCNSFRY (Stearoyl-KKKGGGSLRRSSCFGGRMDRIGAQSGLGCNSFRY; not fully specified (bridges); printed as CH3(CH2)16CO-KKKGGGSLRRSSCFGGRMDRIGAQSGLGCNSFRY; cysteine pairing not given here; listed as Homo Sapiens) [SEQ ID NO. 14] | 574.25 nM | 255.75 pmol/mL | increased potency | 
GGGSLRRSSCFGGRMDRIGAQSGLGCNSFRY (listed as Homo Sapiens) [SEQ ID NO. 4] | 41.66 nM | -11.79 pmol/mL |  | 
CH3(CH2)16CO-RRR-SLPRSSCFGGRMDRIGAQSGLGCNSFrY-NH2 (Stearoyl-RRRSLPRSSCFGGRMDRIGAQSGLGCNSF[dR]Y-NH2; not fully specified (bridges); printed as CH3(CH2)16CO-RRR-SLPRSSCFGGRMDRIGAQSGLG; cysteine pairing not given here; listed as Homo Sapiens) [SEQ ID NO. 40] | inactive | inactive | loss or diminished of activity | 
CH3(CH2)16CO-RRR-SGRGGGCFGGRMDRIGAQSGLGCNSFRY (Stearoyl-RRRSGRGGGCFGGRMDRIGAQSGLGCNSFRY; not fully specified (bridges); printed as CH3(CH2)16CO-RRR-SGRGGGCFGGRMDRIGAQSGLG; cysteine pairing not given here; listed as Homo Sapiens) [SEQ ID NO. 37] | 45.61 nM | 10.16 pmol/mL | limited increase in activity | 
CH3(CH2)16CO-KKKKGGGSLRRSSCFGGRMDRIGAQSGLGCNSFRY (Stearoyl-KKKKGGGSLRRSSCFGGRMDRIGAQSGLGCNSFRY; not fully specified (bridges); printed as CH3(CH2)16CO-KKKKGGGSLRRSSCFGGRMDRIGAQSGLGCNSFRY; cysteine pairing not given here; listed as Homo Sapiens) [SEQ ID NO. 18] | 355.17 nM | 231.65 pmol/mL | increased potency | prevented apparent receptor depletion/internalization
GGSLRRSSCFGGRMDRIGAQSGLGCNSFRY (listed as Homo Sapiens) [SEQ ID NO. 3] | 46.79 nM | 0.16 pmol/mL |  | 
CH3(CH2)10CO-KKKGGGSLRRSSCFGGRMDRIGAQSGLGCNSFRY (Lauroyl-KKKGGGSLRRSSCFGGRMDRIGAQSGLGCNSFRY; not fully specified (bridges); printed as CH3(CH2)10CO-KKKGGGSLRRSSCFGGRMDRIGAQSGLGCNSFRY; cysteine pairing not given here; listed as Homo Sapiens) [SEQ ID NO. 11] | 136.16 nM | 10.28 pmol/mL | increased potency | 
